Reference: patent US4578392A, “Pyrazolo[1,5-a]pyridine derivatives and anti-allergic compositions containing them” (Kyorin Pharmaceutical Co., Ltd., priority 1983, dated 1986)

How the values were obtained:
SRS-A = experiment: Antagonistic action against SRS-A (SRS-A induced contraction of isolated guinea pig ileum); conditions: 3 U/ml SRS-A, 5 minutes incubation, tripelennamine and atropine in Tyrode solution
Experimental: The anti-SRS-A action of the compounds of this invention was evaluated using isolated guinea pig ileum. Short segments of guinea pig terminal ileum were suspended in Tyrode solution containing tripelennamine (3×10^-7 g/ml) and atropine (3×10^-7 g/ml) and their contractions induced by an addition to the organ bath of 3 U/ml SRS-A* were recorded. The ileum was again contracted after incubation with test compounds for 5 minutes by adding the same amount of SRS-A. The anti-SRS-A action is given in Table 6 as IC50 values which indicate the concentration of test compound required to inhibit SRS-A induced ileal contraction by 50%.
*: The SRS-A used in this experiment was prepared from anaphylactic guinea pig lungs. One unit of SRS-A refers to the amount required to produce a contraction of the guinea pig ileum equal in amplitude to that produced by 5 ng histamine base.

[1] = system: SRS-A-induced component of anaphylactic bronchoconstriction; experiment: Inhibitory activity on bronchial anaphylaxis in conscious guinea pigs (SRS-A preferentially involved in bronchoconstriction); type: in vivo, guinea pig; conditions: Cavia porcellus; oral; actively sensitized (egg albumin) conscious guinea pigs, 10 mg/kg diphenhydramine intraperitoneally, inhaled antigen; read-out: ED75 (oral dose required to protect 75% of animals from respiratory distress caused by antigen challenge)
Experimental: The effect of the compounds of this invention on bronchial anaphylactic reaction in vivo was evaluated using conscious guinea pigs in a condition where SRS-A was preferentially involved in bronchoconstriction (Boot, J. R. et al.: Int. Arch. Allergy Appl. Immunol. 67, 340 (1982)). The guinea pigs which had been sensitized actively with egg albumin 3 to 4 weeks prior were given intraperitoneally with 10 mg/kg diphenhydramine. In these animals, inhaled antigen caused a marked respiratory distress due to bronchoconstriction. The ED75 values in Table 7 indicate the oral dose of test compound required to protect 75% of animals from respiratory distress caused by antigen challenge.

Structure (SMILES)	Antagonistic activity against SRS-A IC50 (SRS-A) [µg/mL]	ED75 [1] [mg/kg]
CCCC(O)(c1c(C(C)C)nn2ccccc12)C(C)C (centres unmarked) [Example 17]	2.03	0.75
CCCOC(c1c(C(C)C)nn2ccccc12)C(C)C (centres unmarked) [Example 24]	5.09	–
CC(C)c1nn2ccccc2c1C(O)C1CCCC1 (centres unmarked) [Example 6]	10.3	–
CCC(O)c1c(C(C)C)nn2ccccc12 (centres unmarked) [Example 8, 2-isopropyl-3-(1-hydroxypropyl)pyrazolo[1,5-a]pyridine]	27	–
CC(C)Cc1c(C(C)C)nn2ccccc12 [Example 43]	2.7	–
Cn1c(=O)c2[nH]cnc2n(C)c1=O [Aminophylline, reference compound]	–	3.5
CC(C)c1nn2ccccc2c1C(C)C(C)C (centres unmarked) [Example 44]	1.6	0.5
Cc1nn2ccccc2c1C(O)C(C)C (centres unmarked) [Example 10]	10.3	–
CCC(O)(c1c(C(C)C)nn2ccccc12)C(C)C (centres unmarked) [Example 15, 2-Isopropyl-3-(1-hydroxy-1-ethyl-2-methylpropyl)pyrazolo[1,5-a]pyridine]	1.75	0.68
C=CCC(O)(c1c(C(C)C)nn2ccccc12)C(C)C (centres unmarked) [Example 20]	1.51	0.5
C=CCOC(c1c(C(C)C)nn2cc(OC)ccc12)C(C)C (centres unmarked) [Example 29]	3.84	–
COc1ccc2c(C(OC)C(C)C)c(C(C)C)nn2c1 (centres unmarked) [Example 28]	7.36	–
CCCc1nn2ccccc2c1C(O)CCC (centres unmarked) [Example 11]	16.4	–
C=CCOC(c1c(C(C)C)nn2ccccc12)C(C)C (centres unmarked) [Example 23]	1.06	0.5
C=CCOC(CCC)(c1c(C(C)C)nn2ccccc12)C(C)C (centres unmarked) [Example 32]	0.52	2
CC(C)c1nn2ccccc2c1C(O)C(C)C (centres unmarked) [Example 5, 2-Isopropyl-3-(1-hydroxy-2-methylpropyl)pyrazolo[1,5-a]pyridine]	1.75	0.48
COCc1c(C(C)C)nn2ccccc12 [Example 37, 2-Isopropyl-3-methoxymethylpyrazolo[1,5-a]pyridine]	14.7	–
C=CCOC(CC)(c1c(C(C)C)nn2ccccc12)C(C)C (centres unmarked) [Example 31, 2-isopropyl-3-(1-allyloxy-1-ethyl-2-methylpropyl)pyrazolo[1,5-a]pyridine]	0.27	0.5
COC(c1c(C(C)C)nn2ccccc12)C(C)C (centres unmarked) [Example 21, 2-Isopropyl-3-(1-methoxy-2-methylpropyl)pyrazolo[1,5-a]pyridine]	6.6	0.36

Structure (SMILES)	Antagonistic activity against SRS-A IC50 (SRS-A) [µg/mL]	ED75 [1] [mg/kg]
CC(C)c1nn2ccccc2c1C(C)(O)C(C)C (centres unmarked) [Example 16]	23.5	–
CC(C)=Cc1c(C(C)C)nn2ccccc12 [Example 40]	2.7	–
COC(c1c(C(C)C)nn2cc(C)ccc12)C(C)C (centres unmarked) [Example 26]	18.4	–
CCCCOC(c1c(C(C)C)nn2ccccc12)C(C)C (centres unmarked) [Example 25]	9.98	–
C=CCOC(CCCC)(c1c(C(C)C)nn2ccccc12)C(C)C (centres unmarked) [Example 33]	2.36	–
C=C(c1c(C(C)C)nn2ccccc12)C(C)C [Example 41]	2.45	–
CCCCCCC(O)(c1c(C(C)C)nn2ccccc12)C(C)C (centres unmarked) [Example 19]	2.14	–
COc1ccc2c(C(O)C(C)C)c(C(C)C)nn2c1 (centres unmarked) [Example 13]	4.9	0.5
CCCCC(O)(c1c(C(C)C)nn2ccccc12)C(C)C (centres unmarked) [Example 18]	0.84	0.5
CC=C(c1c(C(C)C)nn2ccccc12)C(C)C [Example 42]	0.44	–
CCCOC(CC)(c1c(C(C)C)nn2ccccc12)C(C)C (centres unmarked) [Example 35, 2-Isopropyl-3-(1-ethyl-1-propoxy-2-methylpropyl)pyrazolo[1,5-a]pyridine]	1.23	0.5
CC(O)COC(c1c(C(C)C)nn2ccccc12)C(C)C (centres unmarked) [Example 36, 2-Isopropyl-3-[1-(2-hydroxypropoxy)-2-methylpropyl]pyrazolo[1,5-a]pyridine]	14.9	–
C=CCOC(c1c(C(C)C)nn2cc(C)ccc12)C(C)C (centres unmarked) [Example 27]	3.93	–
CCCc1c(C(C)C)nn2ccccc12 [Example 39, 2-Isopropyl-3-propylpyrazolo[1,5-a]pyridine]	2.8	–
CCC(OC)(c1c(C(C)C)nn2ccccc12)C(C)C (centres unmarked) [Example 30]	1.52	1
CCOC(c1c(C(C)C)nn2ccccc12)C(C)C (centres unmarked) [Example 22]	7.2	–
CCCC(O)c1c(C(C)C)nn2ccccc12 (centres unmarked) [Example 9]	26.8	–
CC(C)c1nn2ccccc2c1C(OCC1CO1)C(C)C (centres unmarked) [Example 34, 2-isopropyl-3-[1-(2,3-epoxypropoxy)-2-methylpropyl]pyrazolo[1,5-a]pyridine]	7.33	–
